Assays:
Format in all cases: cell-based, human
[1] = tested on: CD8+CD45RClow/- Tregs; assay: Tregs associated markers expression at day 21 after 7 d culture in IS-supplemented medium; settings: Example 4, FIG. 4, tacrolimus 2 ng/ml, compared to drug free medium
Protocol: Methods: Fresh blood was taken from 1 healthy volunteer, PBMCs were isolated by Ficoll centrifugation, washed in PBS, adjusted at 2×10^8 PBMC/ml in PBS-FCS-EDTA and were incubated with anti-CD3-PeCy7, anti CD4-PerCPCy5.5 and anti-CD45RC FITC 30′ 4° C. Cells were washed with PBS-FCS-EDTA, filtered on 60 μm tissue, labeled with Dapi and FACS Aria sorted on lymphocyte morphology, exclusion of doublet cells, and DAPI-CD3^+CD4^−CD45RC^low/− expression. […] At days 7, Tregs were harvested, counted, washed, and plated at 5×10^5Tregs/well/3 ml in p6 plate previously coated with anti-CD3 (OKT3 clone, 1 μg/ml in PBS, 1 ml/well, 1 h at 37° C. then washed with PBS 3 times), in RPMI1640 medium supplemented with 10% AB serum, Penicillin (100 U/ml), Streptomycin (0.1 mg/ml), Sodium pyruvate (1 mM), Glutamine (2 mM), Hepes Buffer (1 mM), non-essential amino acids (1×), IL-2 (1000 U/ml) and IL-15 (10 ng/ml), anti-CD28 mAbs (clone CD28.2, soluble, 1 μg/ml). […] Tregs were analyzed at day 21 for survival/expansion yield and phenotype.

[2] = tested on: CD8+CD45RClow/- Tregs; assay: Suppressive activity of drug-expanded Tregs on CD4+CD25- effector T cells stimulated with allogeneic APCs (CFSE); settings: for suppressive activity of Tregs: Example 3, FIG. 3, Tregs harvested at day 14, 1:1:1 Tregs:Teff:APCs, same drug concentrations, vs no IS drug
Protocol: CD8^+CD45RC^low/− Tregs from fresh or thawed PBMCs were seeded at 3×10^5/ml in RPMI1640 medium supplemented with 10% AB serum, Penicillin (100 U/ml), Streptomycin (0.1 mg/ml), Sodium pyruvate (1 mM), Glutamine (2 mM), Hepes Buffer (1 mM), non-essential amino acids (1×), IL-2 (1000 U/ml) and IL-15 (10 ng/ml), and were stimulated with coated anti-CD3 mAb (1 μg/ml), soluble anti-CD28 mAb (1 μg/ml) and/or allogeneic APCs at 1:4 Tregs: APCs ratio. At day 7, expanded cells were diluted at 1.5×10^5/ml and stimulated again with coated anti-CD3 and soluble anti-CD28 mAbs (1 μg/ml each). […] At day 14, expanded Tregs were washed with PBS before use. Suppressive activity was tested on CD8^+CD45RC^low/− Tregs expanded more than 10 fold in […]. For long-term expansion, CD8^+CD45RC^low/− Tregs and CD4^+CD25^highCD127^low/− Tregs were stimulated again with coated anti-CD3 (1 μg/ml) and soluble anti-CD28 MAbs (1 μg/ml) at days 14 and 21 and IL-2 and IL-15 cytokines were freshly added every 2 days from day 7 to 28. Culture medium 1× cytokines (IL-2 (1000 U/ml) and IL-15 (10 ng/ml)) was added when required.
We tested the effect of immunosuppressive drugs (at concentrations used in the clinic) on CD8^+CD45RC^low/− Tregs survival 7 days following the 14 days expansion (FIG. 1) or on the expansion yield and suppressive function score of CD8^+CD45RC^low/− Tregs during the 14 days expansion (FIG. 3D).
Methods: Fresh blood was taken from 1 healthy volunteer, PBMCs were isolated by Ficoll centrifugation, washed in PBS, adjusted at 2×10^8 PBMC/ml in PBS-FCS-EDTA and were incubated with anti-CD3-PeCy7, anti CD4-PerCPCy5.5 and anti-CD45RC FITC 30′ 4° C. Cells were washed with PBS-FCS-EDTA, filtered on 60 μm tissue, labeled with Dapi and FACS Aria sorted on lymphocyte morphology, exclusion of doublet cells, and DAPI-CD3^+CD4^−CD45RC^low/− expression. […] At days 10 and 12, cytokines were freshly added. Expanded Tregs were harvested at day 14 for suppressive activity assessment. […] After 5 days culture, Teff proliferation was analyzed by CFSE analysis in DAPI^−CD4±CD3^+ T cells.

[3] = tested on: CD8+CD45RClow/- Tregs; assay: Expansion of CD8+CD45RClow/- Tregs with anti-CD3/anti-CD28 in medium supplemented with immunosuppressive drugs (14 days); settings: rapamycin 45 ng/ml, methylprednisolone 500 pg/ml, mycophenolate mofetil 1 μg/ml; for expansion yield: Example 3, FIG. 3, cyclosporine A 45 ng/ml, tacrolimus 2 ng/ml, vs no IS drug
Protocol: CD8^+CD45RC^low/− Tregs from fresh or thawed PBMCs were seeded at 3×10^5/ml in RPMI1640 medium supplemented with 10% AB serum, Penicillin (100 U/ml), Streptomycin (0.1 mg/ml), Sodium pyruvate (1 mM), Glutamine (2 mM), Hepes Buffer (1 mM), non-essential amino acids (1×), IL-2 (1000 U/ml) and IL-15 (10 ng/ml), and were stimulated with coated anti-CD3 mAb (1 μg/ml), soluble anti-CD28 mAb (1 μg/ml) and/or allogeneic APCs at 1:4 Tregs: APCs ratio. At day 7, expanded cells were diluted at 1.5×10^5/ml and stimulated again with coated anti-CD3 and soluble anti-CD28 mAbs (1 μg/ml each). […] At day 14, expanded Tregs were washed with PBS before use. Suppressive activity was tested on CD8^+CD45RC^low/− Tregs expanded more than 10 fold in 7 days. For long-term expansion, CD8^+CD45RC^low/− Tregs and CD4^+CD25^highCD127^low/− Tregs were stimulated again with coated anti-CD3 (1 μg/ml) and soluble anti-CD28 MAbs (1 μg/ml) at days 14 and 21 and IL-2 and IL-15 cytokines were freshly added every 2 days from day 7 to 28. Culture medium 1× cytokines (IL-2 (1000 U/ml) and IL-15 (10 ng/ml)) was added when required.

Row | Compound | IFNg expression by Tregs [1] | suppressive activity of Tregs [2] | expansion yield [3] | suppression capacity ([2]; Example 1, FIG. 3D, Tregs expanded 14 days with drugs alone or subsequently, vs no immunosuppressor (NT)) | expansion fold ([3]; Example 1, FIG. 3D, drugs added alone during 14 days or subsequently (day 0-7, then day 7-14), vs no immunosuppressor (NT))
1 | C=CC[C@@H]1/C=C(\C)C[C@H](C)C[C@H](OC)[C@H]2O[C@@](O)(C(=O)C(=O)N3CCCC[C@H]3C(=O)O[C@H](/C(C)=C/[C@@H]3CC[C@@H](O)[C@H](OC)C3)[C@H](C)[C@@H](O)CC1=O)[C@H](C)C[C@@H]2OC [Tacrolimus, tacrolimus] | significantly decreased | improved | improved | – | –
2 | COc1c(C)c2c(c(O)c1C/C=C(\C)CCC(=O)OCCN1CCOCC1)C(=O)OC2 [mycophenolate mofetil] | – | deleterious | deleterious | decreased suppression | inhibited the expansion by rapamycin

Source: patent publication US20210147801A1, “METHODS FOR INCREASING EXPANSION AND IMMUNOSUPPRESSIVE CAPACITY OF A POPULATION OF CD8+CD45RCLOW/- TREGS” (INSERM (INSTITUT NATIONAL DE LA SANTÉ ET DE LA RECHERCHE …, priority 2017, published 2021)
